According to patent US6287848A, “Dosage modeling system” (Johns Hopkins University, priority 1999, dated 2001):
Like-named read-outs stand apart in the source and are kept apart here.

Experiments:
[1] = tested on: human T-lymphoblastic cell line CEM, infected with HIV; test: Intracellular and extracellular pharmacokinetic profiles of ZDV and its metabolites in hollow-fiber bioreactor dosing system (Example 2); type: in vitro ADME
Protocol: The bioreactor includes a cartridge of polypropylene capillaries that is commercially available from Unisyn Technologies, Inc. (Hopkinton, Mass.). The cells in the bioreactor are a human T-lymphoblastic cell line CEM, infected with HIV. The volume of distribution (VD), which is total amount of fluid in the loop 201 and the central reservoir 230, is 50 ml. The fast and slow pumps are Ismatic Peristaltic Pumps commercially available from Cole-Parmer (Niles, Ill.). The dosing element is a programmable dosing pump commercially available from Medex, Inc. (Deluth, Ga.).
The fast pump is operated at a flow rate of 35 ml/min. The dilution pump 218 is operated at a flow rate of 0.5 ml/min.
The drug Zidovudine (ZDV) is infused at four different dosing regimens for a dosing period of 24 hours, i.e., 0.1 μg/ml, continuously at 0.37 μM; 100 μg every 8 hours; 150 μg every 12 hours; and 300 μg at 24 hours. The control is operated without dosing ZDV.
Samples are removed through sampling port 272. Extracellular concentrations are determined from the fluid, and intracellular concentrations are determined after harvesting and treating the cells to extract the contents.
Drug concentration time curves allow the determination of Cmax, Cmin and AUC.
Thus, the AUCs are similar for the intracellular ZDV-diphosphate and intracellular ZDV-triphosphate.

[2] = tested on: HIV reverse transcriptase; conditions: active metabolite; cited from earlier work

Cc1cn([C@H]2C[C@H](N=[N+]=[N-])[C@@H](COP(=O)(O)OP(=O)(O)O)O2)c(=O)[nH]c1=O [ZDV-diphosphate]
intracellular AUCs across four dosing regimens [1]: similar
intracellular concentration on increasing the dose of ZDV [1]: does not result in an increase

Cc1cn([C@H]2C[C@H](N=[N+]=[N-])[C@@H](COP(=O)(O)O)O2)c(=O)[nH]c1=O [ZDV-monophosphate]
intracellular concentration profiles across four dosing regimens ([1]; FIG. 11a-c, ZDV infused over 24 h: continuously at 0.37 μM, 100 μg every 8 hours, 150 μg every 12 hours, 300 μg at 24 hours): different profiles
intracellular concentration on increasing the dose of ZDV ([1]; increasing the dose of ZDV): relative increase
rate limiting step of intracellular ZDV phosphorylation ([1]; suggested by the data): rate limiting step is the conversion of ZDV-monophosphate to ZDV-iphosphate

Cc1cn([C@H]2C[C@H](N=[N+]=[N-])[C@@H](CO[P@](=O)(O)O[P@](=O)(O)OP(=O)(O)O)O2)c(=O)[nH]c1=O [ZDV-triphosphate]
amount of ZDV-triphosphate resulting from all four dosing regimens [1]: same amount
intracellular AUCs across four dosing regimens [1]: similar
intracellular concentration on increasing the dose of ZDV [1]: does not result in an increase
inhibits HIV reverse transcriptase, which results in the inhibition of HIV replication [2]: inhibits HIV reverse transcriptase
